# Reference: PMC7316778 (Nature Communications, 2020)
# Values joined by “and” are separate entries in the source; they are usually repeats but may differ in a detail not shown here. Identical values can stand only once. Like-named read-outs stand apart in the source and are kept apart here.
# Legend:
# Assay in all cases: SelectScreen kinase assay
# RIPK3 = RIPK3 (Homo sapiens, UniProt Q9Y572)
# Description: (§1) Selectivity profiling assays were performed by the Invitrogen SelectScreen™ Services. […] The concentration of ATP was selected to be equal to the KM, unless indicated otherwise.
# SBK1 = SBK1 (Homo sapiens, UniProt Q52WX2)
# Description: as §1
# JAK1 = JAK1 (Homo sapiens, UniProt P23458); settings: for Inhibition at 1 µM (%): JAK1, ZLYTE, ATP Km app
# Description: as §1
# GSK3A (GSK3 alpha) = GSK3A (GSK3 alpha) (Homo sapiens, UniProt P49840)
# Description: as §1
# PRKCQ (PKC theta) = PRKCQ (PKC theta) (Homo sapiens, UniProt Q04759); settings: 1 h, 1 μM WEL028, 1 h preincubation
# Description: as §1
# STK3 (MST2) = STK3 (MST2) (Homo sapiens, UniProt Q13188)
# Description: as §1
# PRKCB2 (PKC beta II) = PRKCB2 (PKC beta II) (Homo sapiens, UniProt P05771); settings: 1 h, 1 μM WEL028, 1 h preincubation
# Description: as §1
# MAPKAPK3 = MAPKAPK3 (Homo sapiens, UniProt Q16644)
# Description: as §1
# MARK4 = biological target: T1, MARK4 (Homo sapiens, UniProt Q96L34)
# T1 sequence (Q96L34 1-752): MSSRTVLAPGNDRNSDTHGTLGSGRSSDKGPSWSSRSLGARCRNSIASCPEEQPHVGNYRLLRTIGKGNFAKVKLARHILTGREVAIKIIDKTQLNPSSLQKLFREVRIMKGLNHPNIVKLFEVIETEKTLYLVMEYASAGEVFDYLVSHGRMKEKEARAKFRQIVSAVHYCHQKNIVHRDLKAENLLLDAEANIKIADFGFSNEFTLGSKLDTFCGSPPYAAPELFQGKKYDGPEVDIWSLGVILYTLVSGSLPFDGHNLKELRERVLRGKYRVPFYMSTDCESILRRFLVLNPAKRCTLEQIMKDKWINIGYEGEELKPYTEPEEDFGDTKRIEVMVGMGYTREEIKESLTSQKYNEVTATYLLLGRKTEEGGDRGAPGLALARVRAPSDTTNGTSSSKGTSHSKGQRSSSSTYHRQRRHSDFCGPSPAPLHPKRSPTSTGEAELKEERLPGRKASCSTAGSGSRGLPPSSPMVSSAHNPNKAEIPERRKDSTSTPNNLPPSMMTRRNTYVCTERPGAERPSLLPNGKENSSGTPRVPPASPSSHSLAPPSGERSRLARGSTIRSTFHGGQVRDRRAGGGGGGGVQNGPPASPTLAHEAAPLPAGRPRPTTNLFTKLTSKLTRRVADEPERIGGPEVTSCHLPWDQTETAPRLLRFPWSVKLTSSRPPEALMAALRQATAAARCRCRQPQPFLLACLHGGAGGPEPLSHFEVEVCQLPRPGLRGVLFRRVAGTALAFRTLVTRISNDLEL
# Description: as §1
# PIP5K1C = PIP5K1C (Homo sapiens, UniProt O60331)
# Description: as §1
# MAPK12 (p38 gamma) = biological target: T2, MAPK12 (p38 gamma) (Homo sapiens, UniProt P53778)
# T2 sequence (P53778 1-367): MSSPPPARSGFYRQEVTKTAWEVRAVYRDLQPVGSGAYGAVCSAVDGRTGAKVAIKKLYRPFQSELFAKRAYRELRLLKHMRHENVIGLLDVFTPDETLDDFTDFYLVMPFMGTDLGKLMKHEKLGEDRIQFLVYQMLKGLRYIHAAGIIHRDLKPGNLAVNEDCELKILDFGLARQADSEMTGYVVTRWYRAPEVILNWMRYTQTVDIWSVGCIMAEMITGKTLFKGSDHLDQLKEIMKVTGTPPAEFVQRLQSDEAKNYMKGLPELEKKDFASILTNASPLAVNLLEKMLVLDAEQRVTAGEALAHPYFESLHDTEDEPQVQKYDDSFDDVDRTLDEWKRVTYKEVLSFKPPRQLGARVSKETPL
# Description: as §1
# CHUK (IKK alpha) = CHUK (IKK alpha) (Homo sapiens, UniProt O15111)
# Description: as §1
# PIM3 = PIM3 (Homo sapiens, UniProt Q86V86)
# Description: as §1
# ABL1 = ABL1 (Homo sapiens, UniProt P00519)
# Description: as §1
# MAP3K9 (MLK1) = MAP3K9 (MLK1) (Homo sapiens, UniProt P80192)
# Description: as §1
# PAK2 (PAK65) = PAK2 (PAK65) (Homo sapiens, UniProt Q13177)
# Description: as §1
# ACVR1 (ALK2) = ACVR1 (ALK2) (Homo sapiens, UniProt Q04771)
# Description: as §1
# MAPK1 (ERK2) = MAPK1 (ERK2) (Homo sapiens, UniProt P28482)
# Description: as §1
# FGFR2 = FGFR2 (Homo sapiens, UniProt P21802); settings: for Inhibition at 1 µM (%): FGFR2, ZLYTE, ATP Km app
# Description: as §1
# [1] = 1 h, 1 μM WEL028, 1 h preincubation
# Chain of ABL1 (P00519 whole entry): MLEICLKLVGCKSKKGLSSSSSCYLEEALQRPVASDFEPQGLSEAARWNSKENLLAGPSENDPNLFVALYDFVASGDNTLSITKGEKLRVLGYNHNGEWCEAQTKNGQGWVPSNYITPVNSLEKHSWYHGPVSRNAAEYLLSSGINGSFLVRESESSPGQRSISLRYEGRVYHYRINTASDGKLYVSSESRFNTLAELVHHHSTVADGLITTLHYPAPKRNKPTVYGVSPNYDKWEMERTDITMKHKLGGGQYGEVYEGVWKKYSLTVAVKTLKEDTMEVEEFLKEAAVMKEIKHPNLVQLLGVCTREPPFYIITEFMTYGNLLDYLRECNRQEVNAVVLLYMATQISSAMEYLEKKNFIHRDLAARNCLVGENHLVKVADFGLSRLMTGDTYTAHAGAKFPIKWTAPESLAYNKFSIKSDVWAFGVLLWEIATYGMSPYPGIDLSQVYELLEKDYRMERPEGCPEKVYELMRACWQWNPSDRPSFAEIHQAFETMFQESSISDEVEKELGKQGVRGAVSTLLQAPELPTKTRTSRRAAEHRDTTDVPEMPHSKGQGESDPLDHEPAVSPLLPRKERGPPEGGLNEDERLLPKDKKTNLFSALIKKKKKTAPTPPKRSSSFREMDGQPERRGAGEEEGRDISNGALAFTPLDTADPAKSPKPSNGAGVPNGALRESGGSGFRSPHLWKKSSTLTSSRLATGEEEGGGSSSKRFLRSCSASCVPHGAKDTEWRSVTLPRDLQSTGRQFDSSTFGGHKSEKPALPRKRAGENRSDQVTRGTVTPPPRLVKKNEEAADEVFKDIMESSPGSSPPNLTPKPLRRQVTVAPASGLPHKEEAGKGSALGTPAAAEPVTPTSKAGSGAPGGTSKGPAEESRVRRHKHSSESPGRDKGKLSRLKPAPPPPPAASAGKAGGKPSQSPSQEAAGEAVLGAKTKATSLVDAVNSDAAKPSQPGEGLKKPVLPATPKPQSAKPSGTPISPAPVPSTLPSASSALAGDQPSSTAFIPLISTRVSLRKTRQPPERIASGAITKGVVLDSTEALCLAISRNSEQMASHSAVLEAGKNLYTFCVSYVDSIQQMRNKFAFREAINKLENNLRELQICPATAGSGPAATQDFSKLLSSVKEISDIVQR
# Chain of FGFR2 (P21802 22-821): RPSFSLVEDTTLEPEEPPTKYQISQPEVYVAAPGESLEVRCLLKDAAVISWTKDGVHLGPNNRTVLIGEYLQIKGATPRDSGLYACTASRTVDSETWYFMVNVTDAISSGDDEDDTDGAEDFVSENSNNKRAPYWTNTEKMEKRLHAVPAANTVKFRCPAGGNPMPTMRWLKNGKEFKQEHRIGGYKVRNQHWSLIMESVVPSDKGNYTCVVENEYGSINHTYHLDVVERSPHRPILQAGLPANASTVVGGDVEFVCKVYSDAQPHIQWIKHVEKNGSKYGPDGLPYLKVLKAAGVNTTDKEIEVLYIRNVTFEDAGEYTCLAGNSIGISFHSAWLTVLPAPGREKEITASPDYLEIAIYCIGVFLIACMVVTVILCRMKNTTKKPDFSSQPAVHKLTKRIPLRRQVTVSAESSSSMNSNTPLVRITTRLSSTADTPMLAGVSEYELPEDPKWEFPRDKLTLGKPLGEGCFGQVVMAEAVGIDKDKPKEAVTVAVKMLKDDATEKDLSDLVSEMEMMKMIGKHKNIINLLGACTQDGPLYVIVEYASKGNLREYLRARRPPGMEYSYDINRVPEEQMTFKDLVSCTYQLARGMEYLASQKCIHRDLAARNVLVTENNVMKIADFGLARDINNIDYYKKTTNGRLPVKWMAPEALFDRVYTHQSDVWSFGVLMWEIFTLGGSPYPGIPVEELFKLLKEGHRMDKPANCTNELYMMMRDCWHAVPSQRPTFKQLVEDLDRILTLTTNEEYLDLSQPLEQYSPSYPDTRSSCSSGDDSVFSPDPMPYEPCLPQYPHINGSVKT
# Chain of SBK1 (Q52WX2 whole entry): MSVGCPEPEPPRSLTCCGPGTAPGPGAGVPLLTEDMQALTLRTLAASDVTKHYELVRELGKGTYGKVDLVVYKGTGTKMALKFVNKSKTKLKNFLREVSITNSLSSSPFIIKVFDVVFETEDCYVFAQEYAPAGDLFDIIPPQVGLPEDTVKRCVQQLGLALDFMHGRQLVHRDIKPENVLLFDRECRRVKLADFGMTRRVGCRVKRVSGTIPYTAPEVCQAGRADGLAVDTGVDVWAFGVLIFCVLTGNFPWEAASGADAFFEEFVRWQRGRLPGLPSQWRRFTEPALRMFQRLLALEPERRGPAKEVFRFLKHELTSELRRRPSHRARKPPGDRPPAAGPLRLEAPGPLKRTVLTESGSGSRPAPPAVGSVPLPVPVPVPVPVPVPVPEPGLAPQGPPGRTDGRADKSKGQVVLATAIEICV
# Chain of JAK1 (P23458 whole entry): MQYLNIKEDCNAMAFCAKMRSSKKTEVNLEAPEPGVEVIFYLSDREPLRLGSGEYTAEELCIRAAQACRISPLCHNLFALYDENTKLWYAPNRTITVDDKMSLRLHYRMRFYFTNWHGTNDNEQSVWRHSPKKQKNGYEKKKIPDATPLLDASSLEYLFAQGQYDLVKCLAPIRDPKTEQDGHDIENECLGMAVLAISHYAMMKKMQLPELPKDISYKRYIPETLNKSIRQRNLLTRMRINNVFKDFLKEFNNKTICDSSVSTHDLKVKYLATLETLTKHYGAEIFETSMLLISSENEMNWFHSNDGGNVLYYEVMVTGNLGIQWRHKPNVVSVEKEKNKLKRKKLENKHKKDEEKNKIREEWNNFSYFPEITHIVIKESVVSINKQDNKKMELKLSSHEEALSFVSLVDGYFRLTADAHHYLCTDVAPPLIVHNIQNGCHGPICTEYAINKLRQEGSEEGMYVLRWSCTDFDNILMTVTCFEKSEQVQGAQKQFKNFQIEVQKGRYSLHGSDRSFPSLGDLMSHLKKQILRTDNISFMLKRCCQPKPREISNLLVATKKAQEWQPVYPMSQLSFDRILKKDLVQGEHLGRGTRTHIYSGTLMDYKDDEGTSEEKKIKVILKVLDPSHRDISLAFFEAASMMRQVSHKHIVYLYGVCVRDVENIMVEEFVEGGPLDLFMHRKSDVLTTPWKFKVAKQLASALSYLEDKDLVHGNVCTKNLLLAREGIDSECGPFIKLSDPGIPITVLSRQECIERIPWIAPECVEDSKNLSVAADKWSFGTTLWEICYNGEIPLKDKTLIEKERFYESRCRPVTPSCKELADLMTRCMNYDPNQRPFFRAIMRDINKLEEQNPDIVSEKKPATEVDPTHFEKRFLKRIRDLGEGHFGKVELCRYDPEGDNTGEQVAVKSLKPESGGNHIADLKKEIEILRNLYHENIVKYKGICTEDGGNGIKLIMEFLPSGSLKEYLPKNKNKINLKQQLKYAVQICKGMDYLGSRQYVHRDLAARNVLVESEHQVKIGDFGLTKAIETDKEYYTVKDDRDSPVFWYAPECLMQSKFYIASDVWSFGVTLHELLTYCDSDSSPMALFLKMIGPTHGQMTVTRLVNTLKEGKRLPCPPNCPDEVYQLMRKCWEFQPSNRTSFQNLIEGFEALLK
# Chain of CHUK (IKK alpha) (O15111 whole entry): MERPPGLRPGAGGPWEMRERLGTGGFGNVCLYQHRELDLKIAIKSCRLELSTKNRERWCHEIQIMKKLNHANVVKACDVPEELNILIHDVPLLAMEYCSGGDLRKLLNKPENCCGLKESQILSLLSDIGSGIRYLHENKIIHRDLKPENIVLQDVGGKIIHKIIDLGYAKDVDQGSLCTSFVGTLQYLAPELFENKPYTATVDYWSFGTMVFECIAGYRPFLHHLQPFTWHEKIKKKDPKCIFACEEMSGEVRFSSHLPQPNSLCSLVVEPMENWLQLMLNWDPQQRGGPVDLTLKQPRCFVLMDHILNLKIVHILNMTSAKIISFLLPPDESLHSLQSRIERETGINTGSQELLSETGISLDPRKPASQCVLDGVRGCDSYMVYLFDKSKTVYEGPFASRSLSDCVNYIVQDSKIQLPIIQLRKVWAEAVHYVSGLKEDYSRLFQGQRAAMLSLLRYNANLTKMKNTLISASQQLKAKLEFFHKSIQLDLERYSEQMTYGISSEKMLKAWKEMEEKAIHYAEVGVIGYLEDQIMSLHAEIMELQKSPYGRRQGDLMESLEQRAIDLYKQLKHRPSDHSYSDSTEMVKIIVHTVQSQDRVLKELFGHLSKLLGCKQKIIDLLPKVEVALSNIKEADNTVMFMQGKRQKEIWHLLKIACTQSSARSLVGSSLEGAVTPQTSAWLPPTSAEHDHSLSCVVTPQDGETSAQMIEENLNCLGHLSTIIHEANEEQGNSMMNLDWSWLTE
# Chain of MAPKAPK3 (Q16644 whole entry): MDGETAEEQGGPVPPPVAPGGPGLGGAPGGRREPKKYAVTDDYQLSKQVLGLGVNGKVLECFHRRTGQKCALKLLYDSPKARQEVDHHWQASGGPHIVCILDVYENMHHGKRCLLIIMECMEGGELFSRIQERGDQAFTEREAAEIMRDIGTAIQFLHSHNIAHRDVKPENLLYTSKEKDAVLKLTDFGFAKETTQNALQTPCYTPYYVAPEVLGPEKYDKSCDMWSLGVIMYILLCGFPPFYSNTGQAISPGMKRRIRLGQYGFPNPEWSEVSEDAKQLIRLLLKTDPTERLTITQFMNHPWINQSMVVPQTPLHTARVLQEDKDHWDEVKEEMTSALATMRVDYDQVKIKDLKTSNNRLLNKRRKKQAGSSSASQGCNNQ
smiles,measurement,setting,value
C#CCOc1ccc(Nc2ncc(Cl)c(Nc3ccccc3NC(=O)C=C)n2)c(OC)c1 [Compound 6],inhibition at 1 µM,RIPK3; [1],1%
same,inhibition at 1 µM,"RIPK3; read-out: Inhibition at 1 µM (%), 1 µM, LanthaScreen Binding",2%
same,Inhibition at 1 µM (%),"SBK1; 1 µM, ZLYTE, ATP Km app, listed as WEL028, 1 µM",1% and 8%
same,inhibition at 1 µM,SBK1; [1],5%
same,Inhibition (%),"JAK1; 1 μM WEL028, 1 h preincubation",-3%
same,Inhibition at 1 µM (%),JAK1,-2%
same,Inhibition at 1 µM (%),"JAK1; listed as WEL028, 1 µM",-3%
same,inhibition at 1 µM,GSK3A (GSK3 alpha); [1],6%
same,Inhibition at 1 µM (%),"GSK3A (GSK3 alpha); GSK3A (GSK3 alpha), 1 µM, ZLYTE, ATP Km app, listed as WEL028, 1 µM",7%
same,inhibition at 1 µM,"GSK3A (GSK3 alpha); read-out: Inhibition at 1 µM (%), GSK3A (GSK3 alpha), 1 µM, ZLYTE, ATP Km app",5%
same,inhibition at 1 µM,PRKCQ (PKC theta),8%
same,Inhibition at 1 µM (%),"STK3 (MST2); 1 µM, ZLYTE, ATP Km app",15%
same,inhibition at 1 µM,STK3 (MST2); [1],5%
same,inhibition at 1 µM,PRKCB2 (PKC beta II),0%
same,inhibition at 1 µM,MAPKAPK3; [1],9%
same,Inhibition at 1 µM (%),"MAPKAPK3; MAPKAPK3, 1 µM, ZLYTE, ATP Km app, listed as WEL028, 1 µM",10%
same,inhibition at 1 µM,"MAPKAPK3; read-out: Inhibition at 1 µM (%), MAPKAPK3, 1 µM, ZLYTE, ATP Km app",9%
same,Inhibition (%),"MARK4; 1 μM WEL028, 1 h preincubation",8%
same,Inhibition at 1 µM (%),"MARK4; MARK4, 1 µM, ZLYTE, ATP Km app, listed as WEL028, 1 µM",6%
same,inhibition at 1 µM,"MARK4; read-out: Inhibition at 1 µM (%), MARK4, 1 µM, ZLYTE, ATP Km app",9%
same,Inhibition at 1 µM (%),"PIP5K1C; PIP5K1C, Adapta, ATP 10, listed as WEL028, 1 µM",1%
same,inhibition at 1 µM,"PIP5K1C; read-out: Inhibition at 1 µM (%), PIP5K1C, Adapta, ATP 10",2%
same,inhibition at 1 µM,MAPK12 (p38 gamma); [1],10%
same,Inhibition at 1 µM (%),"MAPK12 (p38 gamma); MAPK12 (p38 gamma), 1 µM, ZLYTE, ATP Km app, listed as WEL028, 1 µM",7%
same,inhibition at 1 µM,"MAPK12 (p38 gamma); read-out: Inhibition at 1 µM (%), MAPK12 (p38 gamma), 1 µM, ZLYTE, ATP Km app",12%
same,inhibition at 1 µM,CHUK (IKK alpha); [1],7%
same,Inhibition at 1 µM (%),"CHUK (IKK alpha); CHUK (IKK alpha), 1 µM, Adapta, ATP Km app, listed as WEL028, 1 µM",12% and 3%
same,inhibition at 1 µM,PIM3; [1],0%
same,Inhibition at 1 µM (%),"PIM3; PIM3, 1 µM, ZLYTE, ATP Km app, listed as WEL028, 1 µM",-1% and 1%
same,inhibition at 1 µM,ABL1; [1],-3%
same,Inhibition at 1 µM (%),"ABL1; ABL1, 1 µM, ZLYTE, ATP Km app, listed as WEL028, 1 µM",-7% and 1%
same,inhibition at 1 µM,MAP3K9 (MLK1); [1],-11%
same,Inhibition at 1 µM (%),"MAP3K9 (MLK1); MAP3K9 (MLK1), 1 µM, ZLYTE, ATP Km app",-21%
same,inhibition at 1 µM,PAK2 (PAK65); [1],29%
same,Inhibition at 1 µM (%),"PAK2 (PAK65); PAK2 (PAK65), 1 µM, ZLYTE, ATP Km app, listed as WEL028, 1 µM",23%
same,inhibition at 1 µM,"PAK2 (PAK65); read-out: Inhibition at 1 µM (%), PAK2 (PAK65), 1 µM, ZLYTE, ATP Km app",35%
same,inhibition at 1 µM,ACVR1 (ALK2); [1],2%
same,inhibition at 1 µM,"ACVR1 (ALK2); read-out: Inhibition at 1 µM (%), ACVR1 (ALK2), 1 µM, LanthaScreen Binding",3%
same,inhibition at 1 µM,MAPK1 (ERK2); 1 h,26%
same,inhibition at 1 µM,MAPK1 (ERK2); read-out: Inhibition at 1 µM (%),26%
same,inhibition at 1 µM,FGFR2; [1],7%
same,Inhibition at 1 µM (%),FGFR2,11%
same,Inhibition at 1 µM (%),"FGFR2; listed as WEL028, 1 µM",4%
